PubChem BioAssay (NCI)
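Grown in 96-well plates, cells were treated for 48 hours with each compound at five concentrations. Insufficient inhibition: endpoint recorded as highest concentration tested. Abbreviation: GI50, concentration required for 50% inhibition of growth. The concentration for full growth arrest is given as TGI.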

Experiments:
Assay in all cases: NCI anticancer screen, dose series, 48 h
786-0 renal = tested on: 786-0 renal
A498 renal = tested on: A498 renal
A549 NSCLC = tested on: A549 NSCLC
ACHN renal = tested on: ACHN renal
BT-549 breast = tested on: BT-549 breast
CAKI-1 renal = tested on: CAKI-1 renal
CCRF-CEM leukemia = tested on: CCRF-CEM leukemia
COLO 205 colon = tested on: COLO 205 colon
DU-145 prostate = tested on: DU-145 prostate
HCC-2998 colon = tested on: HCC-2998 colon
HCT-116 colon = tested on: HCT-116 colon
HL-60(TB) leukemia = tested on: HL-60(TB) leukemia
HOP-62 NSCLC = tested on: HOP-62 NSCLC
HOP-92 NSCLC = tested on: HOP-92 NSCLC
HS 578T breast = tested on: HS 578T breast
HT29 colon = tested on: HT29 colon
IGROV1 ovarian = tested on: IGROV1 ovarian
K-562 leukemia = tested on: K-562 leukemia
KM12 colon = tested on: KM12 colon
M14 melanoma = tested on: M14 melanoma
MALME-3M melanoma = tested on: MALME-3M melanoma
MCF7 breast = tested on: MCF7 breast
MDA-MB-231 breast = tested on: MDA-MB-231 breast
MDA-MB-435 = tested on: MDA-MB-435
MOLT-4 leukemia = tested on: MOLT-4 leukemia
NCI-H226 lung = tested on: NCI-H226 lung
NCI-H23 lung = tested on: NCI-H23 lung
NCI-H460 lung = tested on: NCI-H460 lung
NCI/ADR-RES ovarian = tested on: NCI/ADR-RES ovarian
OVCAR-3 ovarian = tested on: OVCAR-3 ovarian
OVCAR-4 ovarian = tested on: OVCAR-4 ovarian
OVCAR-5 ovarian = tested on: OVCAR-5 ovarian
OVCAR-8 ovarian = tested on: OVCAR-8 ovarian
PC-3 prostate = tested on: PC-3 prostate
RPMI-8226 leukemia = tested on: RPMI-8226 leukemia
RXF 393 renal = tested on: RXF 393 renal
SF-268 CNS = tested on: SF-268 CNS
SF-295 CNS = tested on: SF-295 CNS
SF-539 CNS = tested on: SF-539 CNS
SK-MEL-2 melanoma = tested on: SK-MEL-2 melanoma
SK-MEL-28 melanoma = tested on: SK-MEL-28 melanoma
SK-MEL-5 melanoma = tested on: SK-MEL-5 melanoma
SK-OV-3 ovarian = tested on: SK-OV-3 ovarian
SN12C renal = tested on: SN12C renal
SNB-19 CNS = tested on: SNB-19 CNS
SNB-75 CNS = tested on: SNB-75 CNS
SR leukemia = tested on: SR leukemia
SW-620 colon = tested on: SW-620 colon
T-47D breast = tested on: T-47D breast
TK-10 renal = tested on: TK-10 renal
U251 CNS = tested on: U251 CNS
UACC-257 melanoma = tested on: UACC-257 melanoma
UACC-62 melanoma = tested on: UACC-62 melanoma
UO-31 renal = tested on: UO-31 renal

With `C[C@]12CC[C@@H]3c4ccc(O)cc4CC[C@H]3[C@@H]1CC[C@@H]2NS(=O)(=O)c1ccc(Cl)cc1` the GI50 (786-0 renal) was 5.19 µM, the TGI (786-0 renal) was 19.7 µM and the GI50 (A498 renal) was 2.52 µM. For the same compound, the TGI (A498 renal) was 9.36 µM, the GI50 (A549 NSCLC) was 3.98 µM and the TGI (A549 NSCLC) was 15.3 µM. The GI50 (ACHN renal) was 3.5 µM, the TGI (ACHN renal) was 12.9 µM and the GI50 (BT-549 breast) was 5.65 µM. It also gave a TGI (BT-549 breast) of 22.3 µM, a GI50 (CAKI-1 renal) of 3.3 µM and a TGI (CAKI-1 renal) of 10.4 µM. For the same compound, the GI50 (CCRF-CEM leukemia) was 3.5 µM, the TGI (CCRF-CEM leukemia) was 37.6 µM and the GI50 (COLO 205 colon) was 2.17 µM. It also gave a TGI (COLO 205 colon) of 4.09 µM, a GI50 (DU-145 prostate) of 7.53 µM and a TGI (DU-145 prostate) of 21.6 µM. It also gave a GI50 (HCC-2998 colon) of 7.49 µM, a TGI (HCC-2998 colon) of 23.8 µM and a GI50 (HCT-116 colon) of 4.03 µM. The TGI (HCT-116 colon) was 21.7 µM, the GI50 (HL-60(TB) leukemia) was 5.14 µM and the TGI (HL-60(TB) leukemia) was 26.6 µM. The GI50 (HOP-62 NSCLC) was 10.2 µM, the TGI (HOP-62 NSCLC) was 24.4 µM and the GI50 (HOP-92 NSCLC) was 2.68 µM. For the same compound, the TGI (HOP-92 NSCLC) was 10.7 µM, the GI50 (HS 578T breast) was 2.58 µM and the TGI (HS 578T breast) was 14.5 µM. The GI50 (HT29 colon) was 2.92 µM, the TGI (HT29 colon) was 8.19 µM and the GI50 (IGROV1 ovarian) was 5.74 µM. The TGI (IGROV1 ovarian) was 18.4 µM, the GI50 (K-562 leukemia) was 3.93 µM and the TGI (K-562 leukemia) was 31.7 µM. It also gave a GI50 (KM12 colon) of 2.86 µM, a TGI (KM12 colon) of 9.51 µM and a GI50 (M14 melanoma) of 9.13 µM. The TGI (M14 melanoma) was 27.1 µM, the GI50 (MALME-3M melanoma) was 3.25 µM and the TGI (MALME-3M melanoma) was 10.7 µM. It also gave a GI50 (MCF7 breast) of 1.91 µM, a TGI (MCF7 breast) of 4.86 µM and a GI50 (MDA-MB-231 breast) of 3.6 µM. It also gave a TGI (MDA-MB-231 breast) of 14.2 µM, a GI50 (MDA-MB-435) of 1.84 µM and a TGI (MDA-MB-435) of 3.93 µM. The GI50 (MOLT-4 leukemia) was 3.46 µM, the TGI (MOLT-4 leukemia) was 24.4 µM and the GI50 (NCI-H226 lung) was 6.43 µM. It also gave a TGI (NCI-H226 lung) of 21.4 µM, a GI50 (NCI-H23 lung) of 5.67 µM and a TGI (NCI-H23 lung) of 23.1 µM. The GI50 (NCI-H460 lung) was 2.6 µM, the TGI (NCI-H460 lung) was 6.66 µM and the GI50 (NCI/ADR-RES ovarian) was 4 µM. It also gave a TGI (NCI/ADR-RES ovarian) of 16.8 µM, a GI50 (OVCAR-3 ovarian) of 3.75 µM and a TGI (OVCAR-3 ovarian) of 12.8 µM. The GI50 (OVCAR-4 ovarian) was 1.99 µM, the TGI (OVCAR-4 ovarian) was 8.65 µM and the GI50 (OVCAR-5 ovarian) was 6.02 µM. For the same compound, the TGI (OVCAR-5 ovarian) was 20.5 µM, the GI50 (OVCAR-8 ovarian) was 4.86 µM and the TGI (OVCAR-8 ovarian) was 20.6 µM. For the same compound, the GI50 (PC-3 prostate) was 2.86 µM, the TGI (PC-3 prostate) was 13.5 µM and the GI50 (RPMI-8226 leukemia) was 3.92 µM. The TGI (RPMI-8226 leukemia) was 23.5 µM, the GI50 (RXF 393 renal) was 3.02 µM and the TGI (RXF 393 renal) was 8.89 µM. For the same compound, the GI50 (SF-268 CNS) was 5.69 µM, the TGI (SF-268 CNS) was 19.9 µM and the GI50 (SF-295 CNS) was 1.39 µM. The TGI (SF-295 CNS) was 2.72 µM, the GI50 (SF-539 CNS) was 5.36 µM and the TGI (SF-539 CNS) was 19.1 µM. It also gave a GI50 (SK-MEL-2 melanoma) of 5.31 µM, a TGI (SK-MEL-2 melanoma) of 17.7 µM and a GI50 (SK-MEL-28 melanoma) of 7.45 µM. For the same compound, the TGI (SK-MEL-28 melanoma) was 22.3 µM, the GI50 (SK-MEL-5 melanoma) was 2.4 µM and the TGI (SK-MEL-5 melanoma) was 6.71 µM. For the same compound, the GI50 (SK-OV-3 ovarian) was 8.79 µM, the TGI (SK-OV-3 ovarian) was 22.5 µM and the GI50 (SN12C renal) was 3.02 µM. For the same compound, the TGI (SN12C renal) was 12.3 µM, the GI50 (SNB-19 CNS) was 11 µM and the TGI (SNB-19 CNS) was 24 µM. The GI50 (SNB-75 CNS) was 2.07 µM, the TGI (SNB-75 CNS) was 9.17 µM and the GI50 (SR leukemia) was 4.47 µM. It also gave a TGI (SR leukemia) of 50.8 µM, a GI50 (SW-620 colon) of 3.95 µM and a TGI (SW-620 colon) of 15.9 µM. It also gave a GI50 (T-47D breast) of 3.66 µM, a TGI (T-47D breast) of 15.3 µM and a GI50 (TK-10 renal) of 5.46 µM. For the same compound, the TGI (TK-10 renal) was 17.6 µM, the GI50 (U251 CNS) was 5.49 µM and the TGI (U251 CNS) was 18.5 µM. The GI50 (UACC-257 melanoma) was 8.5 µM, the TGI (UACC-257 melanoma) was 23.5 µM and the GI50 (UACC-62 melanoma) was 4.46 µM. It also gave a TGI (UACC-62 melanoma) of 17.5 µM, a GI50 (UO-31 renal) of 2.59 µM and a TGI (UO-31 renal) of 11.9 µM.
